Reference: doi:10.1101/2020.07.22.215434v1 (biorxiv, 2020)

Key:
Assay in all cases: whole-cell patch clamp
Format in all cases: cell-based
hCav 3.2 [1] = biological target: T1, hCav 3.2 (Homo sapiens, UniProt O95180); conditions: tonic block, step -100 to -30 mV, 5 mM Ba2+, pH 7.4, room temperature
hCav 3.2 [2] = biological target: T1, hCav 3.2; conditions: read-out: % inhibition at 10 μM
hCav 3.1 = hCav 3.1 (Homo sapiens, UniProt O43497); conditions: tonic block, step -100 to -30 mV, 5 mM Ba2+, pH 7.4, room temperature
Sequence of hCav 3.1 (O43497 whole entry): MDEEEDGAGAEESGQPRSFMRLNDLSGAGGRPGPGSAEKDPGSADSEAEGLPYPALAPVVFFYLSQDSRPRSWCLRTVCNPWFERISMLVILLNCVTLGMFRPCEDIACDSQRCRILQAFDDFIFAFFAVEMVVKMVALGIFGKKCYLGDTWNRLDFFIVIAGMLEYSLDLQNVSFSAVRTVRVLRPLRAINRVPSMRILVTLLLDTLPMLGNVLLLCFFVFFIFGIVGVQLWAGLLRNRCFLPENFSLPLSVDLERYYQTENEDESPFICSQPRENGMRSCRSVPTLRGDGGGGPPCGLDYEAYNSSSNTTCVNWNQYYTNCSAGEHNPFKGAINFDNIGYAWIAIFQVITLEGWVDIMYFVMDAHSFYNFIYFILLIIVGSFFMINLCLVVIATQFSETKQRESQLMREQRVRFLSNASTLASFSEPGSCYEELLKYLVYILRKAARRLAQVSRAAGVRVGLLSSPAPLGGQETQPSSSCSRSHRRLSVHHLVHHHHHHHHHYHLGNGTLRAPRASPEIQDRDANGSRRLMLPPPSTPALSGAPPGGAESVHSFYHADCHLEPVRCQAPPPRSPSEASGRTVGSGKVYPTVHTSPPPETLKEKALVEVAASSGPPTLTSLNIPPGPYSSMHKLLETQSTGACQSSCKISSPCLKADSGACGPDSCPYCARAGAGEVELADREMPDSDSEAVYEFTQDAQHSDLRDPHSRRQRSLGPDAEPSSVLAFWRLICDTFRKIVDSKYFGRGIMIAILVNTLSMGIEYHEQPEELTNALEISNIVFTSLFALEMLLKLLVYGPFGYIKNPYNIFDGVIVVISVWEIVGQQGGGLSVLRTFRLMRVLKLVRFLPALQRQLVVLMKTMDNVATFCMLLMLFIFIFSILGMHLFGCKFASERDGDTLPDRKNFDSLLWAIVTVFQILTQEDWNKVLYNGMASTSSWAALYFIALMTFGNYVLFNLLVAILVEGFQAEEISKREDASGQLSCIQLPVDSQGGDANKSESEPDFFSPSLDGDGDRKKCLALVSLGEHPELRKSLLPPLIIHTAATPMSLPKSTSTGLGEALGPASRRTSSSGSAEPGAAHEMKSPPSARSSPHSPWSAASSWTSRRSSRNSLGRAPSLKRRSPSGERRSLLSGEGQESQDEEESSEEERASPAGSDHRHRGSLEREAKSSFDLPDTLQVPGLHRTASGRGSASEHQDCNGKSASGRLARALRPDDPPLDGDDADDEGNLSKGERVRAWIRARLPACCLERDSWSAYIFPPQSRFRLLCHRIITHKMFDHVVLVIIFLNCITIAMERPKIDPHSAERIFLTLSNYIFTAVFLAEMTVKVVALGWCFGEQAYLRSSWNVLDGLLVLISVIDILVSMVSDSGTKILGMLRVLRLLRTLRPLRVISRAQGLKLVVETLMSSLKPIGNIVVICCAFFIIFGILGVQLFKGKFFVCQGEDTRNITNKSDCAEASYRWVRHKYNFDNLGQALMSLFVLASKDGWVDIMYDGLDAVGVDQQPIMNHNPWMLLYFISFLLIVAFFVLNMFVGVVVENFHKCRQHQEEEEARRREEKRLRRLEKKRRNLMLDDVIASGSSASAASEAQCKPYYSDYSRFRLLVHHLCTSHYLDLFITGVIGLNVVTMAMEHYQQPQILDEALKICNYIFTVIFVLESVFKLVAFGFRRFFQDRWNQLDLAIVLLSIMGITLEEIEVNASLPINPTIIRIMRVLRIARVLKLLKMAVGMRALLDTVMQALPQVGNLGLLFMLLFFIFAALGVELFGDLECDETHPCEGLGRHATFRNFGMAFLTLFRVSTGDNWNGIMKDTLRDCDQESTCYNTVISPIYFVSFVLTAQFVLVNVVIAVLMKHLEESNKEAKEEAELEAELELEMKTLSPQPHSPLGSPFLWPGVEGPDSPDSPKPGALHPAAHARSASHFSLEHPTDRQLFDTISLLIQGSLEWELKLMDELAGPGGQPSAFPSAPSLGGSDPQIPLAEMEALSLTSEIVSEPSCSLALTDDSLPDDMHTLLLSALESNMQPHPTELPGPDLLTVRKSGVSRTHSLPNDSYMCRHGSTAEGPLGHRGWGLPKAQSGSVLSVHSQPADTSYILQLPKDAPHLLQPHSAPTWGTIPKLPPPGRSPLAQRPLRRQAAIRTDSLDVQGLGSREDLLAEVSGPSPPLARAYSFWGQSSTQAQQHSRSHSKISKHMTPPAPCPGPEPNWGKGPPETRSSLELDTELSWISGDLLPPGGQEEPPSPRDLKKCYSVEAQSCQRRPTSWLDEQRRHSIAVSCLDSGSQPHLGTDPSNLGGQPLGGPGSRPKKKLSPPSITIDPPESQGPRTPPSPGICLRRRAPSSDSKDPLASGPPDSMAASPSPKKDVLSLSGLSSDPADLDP

T1 sequence (O95180 whole entry): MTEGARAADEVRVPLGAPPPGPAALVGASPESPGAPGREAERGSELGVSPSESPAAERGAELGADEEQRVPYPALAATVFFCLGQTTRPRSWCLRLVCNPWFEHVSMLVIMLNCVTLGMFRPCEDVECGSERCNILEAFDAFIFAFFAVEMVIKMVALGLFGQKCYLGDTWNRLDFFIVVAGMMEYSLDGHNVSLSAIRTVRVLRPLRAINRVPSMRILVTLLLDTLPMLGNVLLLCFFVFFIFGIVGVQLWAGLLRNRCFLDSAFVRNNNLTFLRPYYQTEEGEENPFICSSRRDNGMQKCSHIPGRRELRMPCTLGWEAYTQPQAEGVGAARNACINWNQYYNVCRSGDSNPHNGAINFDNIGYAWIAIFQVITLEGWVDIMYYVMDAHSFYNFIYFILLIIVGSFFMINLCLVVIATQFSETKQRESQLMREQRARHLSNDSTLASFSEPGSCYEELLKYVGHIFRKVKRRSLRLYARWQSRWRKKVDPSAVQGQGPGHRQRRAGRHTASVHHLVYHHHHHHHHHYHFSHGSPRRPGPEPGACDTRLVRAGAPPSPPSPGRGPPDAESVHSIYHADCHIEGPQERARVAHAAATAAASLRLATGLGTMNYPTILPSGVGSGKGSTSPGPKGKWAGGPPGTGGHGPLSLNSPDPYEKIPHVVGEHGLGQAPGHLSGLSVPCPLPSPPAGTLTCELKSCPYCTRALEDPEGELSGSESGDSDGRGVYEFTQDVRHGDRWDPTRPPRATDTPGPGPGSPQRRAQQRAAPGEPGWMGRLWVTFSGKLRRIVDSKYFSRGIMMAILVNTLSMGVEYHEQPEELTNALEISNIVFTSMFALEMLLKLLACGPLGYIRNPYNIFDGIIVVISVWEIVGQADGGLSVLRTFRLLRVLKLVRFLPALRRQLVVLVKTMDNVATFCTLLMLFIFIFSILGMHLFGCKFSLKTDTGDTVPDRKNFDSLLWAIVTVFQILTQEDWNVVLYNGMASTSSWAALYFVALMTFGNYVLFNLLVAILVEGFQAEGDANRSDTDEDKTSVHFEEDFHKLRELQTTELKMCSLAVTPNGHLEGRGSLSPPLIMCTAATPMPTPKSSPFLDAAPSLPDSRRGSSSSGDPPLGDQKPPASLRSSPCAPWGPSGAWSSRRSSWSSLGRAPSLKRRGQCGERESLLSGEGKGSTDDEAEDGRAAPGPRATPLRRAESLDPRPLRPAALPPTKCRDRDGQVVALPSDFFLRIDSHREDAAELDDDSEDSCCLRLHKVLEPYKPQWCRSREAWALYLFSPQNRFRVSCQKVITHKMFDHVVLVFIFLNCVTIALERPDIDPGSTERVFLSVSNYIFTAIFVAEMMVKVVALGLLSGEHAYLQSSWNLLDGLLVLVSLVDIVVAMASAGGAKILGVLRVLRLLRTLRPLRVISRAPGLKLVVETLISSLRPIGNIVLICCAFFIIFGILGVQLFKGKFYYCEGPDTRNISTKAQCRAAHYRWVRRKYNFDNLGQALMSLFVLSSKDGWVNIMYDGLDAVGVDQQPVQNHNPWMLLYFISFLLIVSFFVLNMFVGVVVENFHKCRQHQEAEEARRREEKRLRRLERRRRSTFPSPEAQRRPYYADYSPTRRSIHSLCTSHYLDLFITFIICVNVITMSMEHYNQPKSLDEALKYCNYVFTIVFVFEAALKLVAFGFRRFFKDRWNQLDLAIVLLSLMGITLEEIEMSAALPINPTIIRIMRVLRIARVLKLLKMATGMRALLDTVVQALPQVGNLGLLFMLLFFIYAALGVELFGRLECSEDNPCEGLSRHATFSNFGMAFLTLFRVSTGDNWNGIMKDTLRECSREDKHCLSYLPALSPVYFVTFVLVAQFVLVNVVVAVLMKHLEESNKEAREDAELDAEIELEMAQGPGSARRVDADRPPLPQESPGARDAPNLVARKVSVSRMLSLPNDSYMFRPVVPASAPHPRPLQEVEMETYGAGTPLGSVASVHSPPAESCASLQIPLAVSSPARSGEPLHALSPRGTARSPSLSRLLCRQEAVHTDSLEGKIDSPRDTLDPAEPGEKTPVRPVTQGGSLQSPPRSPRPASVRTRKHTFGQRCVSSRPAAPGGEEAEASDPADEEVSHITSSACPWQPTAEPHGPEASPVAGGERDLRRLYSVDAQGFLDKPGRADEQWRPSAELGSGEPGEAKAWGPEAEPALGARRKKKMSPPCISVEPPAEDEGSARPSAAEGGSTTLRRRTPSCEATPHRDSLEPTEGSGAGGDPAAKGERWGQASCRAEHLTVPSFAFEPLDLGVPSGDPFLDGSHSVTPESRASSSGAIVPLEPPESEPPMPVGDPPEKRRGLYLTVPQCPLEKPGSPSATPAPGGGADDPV

| Compound | IC50 (hCav 3.2 [1]) | inhibition at 10 µM (hCav 3.2 [2]) | other results |
| --- | --- | --- | --- |
| COC(=O)C(NC(=O)c1nn(CC2CCCCC2)c2ccccc12)C(C)C (centres unmarked) [AMB-CHMINACA, methyl 2-((1-(cyclohexylmethyl)-1H-indazole-3-carbonyl)amino)-3-methylbutanoate] | 740 ± 300 nM | – | – |
| C=C(C)[C@@H]1CCC(C)=C[C@H]1c1c(O)cc(CCCCC)cc1O [CBD] | – | 57 ± 5% | – |
| COC(=O)C(NC(=O)c1cn(CC2CCCCC2)c2ccccc12)C(C)(C)C (centres unmarked) [MDMB-CHMICA, methyl-2-[[1-(cyclohexylmethyl)indole-3-carbonyl]amino]-3,3-dimethylbutanoate] | 1500 ± 200 nM | – | – |
| COC(=O)[C@@H](NC(=O)c1nn(CC2CCCCC2)c2ccccc12)C(C)(C)C [MDMB-CHMINACA] | – | – | % inhibition at 10 μM (hCav 3.1): > 80% |
| CCCCCc1cc(O)c2c(c1)OC(C)(C)[C@@H]1CCC(C)=C[C@@H]21 [Δ9-THC] | – | 43 ± 2.4% | – |
